What is called inhibition is the share of the control response that was lost under treatment. In general, Ki refers to a measure of affinity in units of concentration, obtained from inhibition or displacement. A lower Ki goes with a stronger hold on the target.

In the first experiment the target is T1, JNK1α1 (Homo sapiens, UniProt P45983).
T1 construct: catalytic domain containing amino acids 1-364 and N-terminal hexahistidine tag; hexahistidine (His6) (N); made in house; host or cells: E. coli BL21 (DE3)
T1 sequence (P45983 1-364): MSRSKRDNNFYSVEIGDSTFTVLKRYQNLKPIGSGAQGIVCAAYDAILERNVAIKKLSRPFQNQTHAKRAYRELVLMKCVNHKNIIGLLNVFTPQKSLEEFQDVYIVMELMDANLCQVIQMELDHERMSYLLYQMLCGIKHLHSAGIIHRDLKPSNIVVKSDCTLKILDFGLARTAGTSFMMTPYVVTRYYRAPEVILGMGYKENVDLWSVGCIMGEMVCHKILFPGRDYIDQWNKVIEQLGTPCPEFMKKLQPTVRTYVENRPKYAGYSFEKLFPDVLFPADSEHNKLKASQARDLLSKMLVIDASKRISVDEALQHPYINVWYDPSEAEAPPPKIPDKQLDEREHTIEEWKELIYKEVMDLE
Kind of experiment: Coupled spectrophotometric (PK/LDH) JNK1α1 assay: % inhibition and Ki determination. The format is biochemical. The note with it: @1 uM; read-out: % Inhibition JNK-1. An outline of the steps:
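Initial rates were taken from the absorbance decrease at 340 nm at 30° C. Ki was fitted with a tight-binding model over 11 concentrations (top 100 μM); single-point inhibition was tested at 1 or 10 μM.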
With `Cn1c(CCNC(=O)c2cccc3cnc(N[C@H]4CC[C@H](O)CC4)nc23)nc2cccnc21` [Example 520, 2-[(trans-4-hydroxycyclohexyl)amino]-N-[2-(3-methyl-3H-imidazo[4,5-b]pyridin-2-yl)ethyl]quinazoline-8-carboxamide], the inhibition at 1 µM stood at 10%.
Still for that read-out and setting: the value for `Cc1cc(CNC(=O)c2cccc3cnc(N[C@H]4CC[C@H](O)CC4)nc23)nn1C` [Example 521, N-[(1,5-dimethyl-1H-pyrazol-3-yl)methyl]-2-[(trans-4-hydroxycyclohexyl)amino]quinazoline-8-carboxamide] was 49%.
Same read-out and setting: then `CN(C)C(C)(C)COc1cccc2cnc(N[C@H]3CC[C@H](O)CC3)nc12` [Example 251, trans-4-({8-[2-(dimethylamino)-2-methylpropoxy]quinazolin-2-yl}amino)cyclohexanol], with 19%; and `CC(COc1cccc2cnc(N[C@H]3CC[C@H](O)CC3)nc12)N(C)C` (stereo partly drawn) [Example 266, trans-4-({8-[2-(dimethylamino)propoxy]quinazolin-2-yl}amino)cyclohexanol], with 14%; and `Cc1noc(CNC(=O)c2cccc3cnc(N[C@H]4CC[C@H](O)CC4)nc23)n1` [Example 530, 2-[(trans-4-hydroxycyclohexyl)amino]-N-[(3-methyl-1,2,4-oxadiazol-5-yl)methyl]quinazoline-8-carboxamide], with 26%.
`Cc1cccn(CCNC(=O)c2cccc3cnc(N[C@H]4CC[C@H](O)CC4)nc23)c1=O` [Example 531, 2-[(trans-4-hydroxycyclohexyl)amino]-N-[2-(3-methyl-2-oxopyridin-1(2H)-yl)ethyl]quinazoline-8-carboxamide]: the inhibition at 1 µM came out at 26%.
On the same count and under the same terms, the value for `CC(C)Nc1ncc2ccc(C(=O)NC3(CO)CCCC3)cc2n1` [Example 423, N-[1-(hydroxymethyl)cyclopentyl]-2-(isopropylamino)quinazoline-7-carboxamide] was 15%.

The same experiment, now with this note: @10 uM; read-out: % Inhibition JNK-1.
As to `CC(C)(C)C(=O)N1CCC(NC(=O)c2cccc3cnc(N[C@H]4CC[C@H](O)CC4)nc23)C1` (stereo partly drawn) [Example 504, N-[1-(2,2-dimethylpropanoyl)pyrrolidin-3-yl]-2-[(trans-4-hydroxycyclohexyl)amino]quinazoline-8-carboxamide], the inhibition at 10 µM was 40%.

Still in this experiment, the particulars now being: JNK-1.
In the case of `CC(=O)N[C@H]1CC[C@H](Nc2ncc3cccc(C(=O)NCC(C)(C)O)c3n2)CC1` [Example 135, 2-{[trans-4-(acetylamino)cyclohexyl]amino}-N-(2-hydroxy-2-methylpropyl)quinazoline-8-carboxamide], affinity was put at a Ki of 300 nM.
Same read-out and setting: then `Oc1cccc2cnc(N[C@H]3CC[C@H](O)CC3)nc12` [Example 152, 2-[(trans-4-hydroxycyclohexyl)amino]quinazolin-8-ol], with 420 nM; and `CC(C)[C@@H](CO)NC(=O)c1cccc2cnc(N[C@H]3CC[C@H](O)CC3)nc12` [Example 445, 2-[(trans-4-hydroxycyclohexyl)amino]-N-[(1S)-1-(hydroxymethyl)-2-methylpropyl]quinazoline-8-carboxamide], with 110 nM; and `COc1cccc2cnc(N[C@H]3CC[C@H](O)CC3)nc12` [Example 150], with 359 nM.
On the same count and under the same terms, then `O=C(N[C@@H]1CCC[C@H]1O)c1cccc2cnc(N[C@H]3CC[C@H](O)CC3)nc12` (relative stereo) [Example 136, 2-[(trans-4-hydroxycyclohexyl)amino]-N-[(trans)-2-hydroxycyclopentyl]quinazoline-8-carboxamide], with 257 nM; and `O=C(COc1cccc(-c2cnccn2)c1)Nc1cc2cc(-c3cn[nH]c3)ccc2cn1` [Example 32, 2-(3-pyrazin-2-ylphenoxy)-N-[6-(1H-pyrazol-4-yl)isoquinolin-3-yl]acetamide], with 8 nM.
In the case of `c1ccc2ncc(CNc3cc4cc(-c5cn[nH]c5)ccc4cn3)cc2c1` [Example 220, 6-(1H-pyrazol-4-yl)-N-(quinolin-3-ylmethyl)isoquinolin-3-amine], the Ki worked out at 1930 nM.
Still for that read-out and setting: then `O=C(NCC1(O)CCOc2ccccc21)c1cccc2cnc(N[C@H]3CC[C@H](O)CC3)nc12` (stereo partly drawn) [Example 444, 2-[(trans-4-hydroxycyclohexyl)amino]-N-[(4-hydroxy-3,4-dihydro-2H-chromen-4-yl)methyl]quinazoline-8-carboxamide], with 106 nM.
The same measure, in the same setting: the value for `O=C(NC1CCS(=O)(=O)C1)c1ccc2cnc(N[C@H]3CC[C@H](O)CC3)nc2c1` (stereo partly drawn) [Example 79, N-(1,1-dioxidotetrahydro-3-thienyl)-2-[(trans-4-hydroxycyclohexyl)amino]quinazoline-7-carboxamide] was 292 nM; that for `O=C(NCCCO)c1ccc2cnc(N[C@H]3CC[C@H](O)CC3)nc2c1` [Example 338, 2-[(trans-4-hydroxycyclohexyl)amino]-N-(3-hydroxypropyl)quinazoline-7-carboxamide] was 637 nM.
For `O=C(NCC1CCOC1)c1cccc2cnc(N[C@H]3CC[C@H](O)CC3)nc12` (stereo partly drawn) [Example 107, 2-[(trans-4-hydroxycyclohexyl)amino]-N-(tetrahydrofuran-3-ylmethyl)quinazoline-8-carboxamide], the affinity corresponds to a Ki of 250 nM.
On the same count and under the same terms, then `O=C(N[C@@H]1Cc2ccccc2[C@H]1O)c1cccc2cnc(N[C@H]3CC[C@H](O)CC3)nc12` [Example 459, 2-[(trans-4-hydroxycyclohexyl)amino]-N-[(1R,2R)-1-hydroxy-2,3-dihydro-1H-inden-2-yl]quinazoline-8-carboxamide], with 399 nM; and `O=C(N[C@H]1CC[C@@H](CO)CC1)c1ccc2cnc(N[C@H]3CC[C@H](O)CC3)nc2c1` [Example 336, 2-[(trans-4-hydroxycyclohexyl)amino]-N-[cis-4-(hydroxymethyl)cyclohexyl]quinazoline-7-carboxamide], with 516 nM; and `O[C@H]1CC[C@H](Nc2ncc3ccc(Oc4ccccc4)cc3n2)CC1` [Example 161, trans-4-[(7-phenoxyquinazolin-2-yl)amino]cyclohexanol], with 111 nM.
Still for that read-out and setting: the value for `CCS(=O)(=O)N[C@H]1CC[C@H](Nc2ncc3cccc(OC4CCOCC4)c3n2)CC1` [Example 183, N-(trans-4-{[8-(tetrahydro-2H-pyran-4-yloxy)quinazolin-2-yl]amino}cyclohexyl)ethanesulfonamide] was 220 nM.
Still for that read-out and setting: then `OC1(c2cncnc2)CCC(Nc2cc3cc(-c4cn[nH]c4)ccc3cn2)CC1` (stereo not shown) [Example 215, 4-{[6-(1H-pyrazol-4-yl)isoquinolin-3-yl]amino}-1-pyrimidin-5-ylcyclohexanol], with 250 nM.
The molecule `Oc1ccc2cnc(N[C@H]3CC[C@H](O)CC3)nc2c1` [Example 146, 2-[(trans-4-hydroxycyclohexyl)amino]quinazolin-7-ol] came in with a Ki of 178 nM.
The same measure, in the same setting: then `O=C(c1cccc2cnc(N[C@H]3CC[C@H](O)CC3)nc12)N1CCOCC1` [Example 102, trans-4-{[8-(morpholin-4-ylcarbonyl)quinazolin-2-yl]amino}cyclohexanol], with 992 nM.
Still for that read-out and setting: then `O=C(N[C@H](CO)CC1CCCCC1)c1ccc2cnc(NC3CCCC3)nc2c1` [Example 419, N-[(1S)-2-cyclohexyl-1-(hydroxymethyl)ethyl]-2-(cyclopentylamino)quinazoline-7-carboxamide], with 3030 nM; and `CC(C)C[C@@H](CO)NC(=O)c1ccc2cnc(NC3CCC3)nc2c1` [Example 397, 2-(cyclobutylamino)-N-[(1S)-1-(hydroxymethyl)-3-methylbutyl]quinazoline-7-carboxamide], with 428 nM.
In turn, `CCC[C@@H](CO)NC(=O)c1ccc2cnc(NC(C)C)nc2c1` [Example 406, N-[(1S)-1-(hydroxymethyl)butyl]-2-(isopropylamino)quinazoline-7-carboxamide] returned an inhibition constant Ki of 730 nM.
Still for that read-out and setting: the value for `Cc1nnc(CNC(=O)c2ccc3cnc(N[C@H]4CC[C@H](O)CC4)nc3c2)o1` [Example 355, 2-[(trans-4-hydroxycyclohexyl)amino]-N-[(5-methyl-1,3,4-oxadiazol-2-yl)methyl]quinazoline-7-carboxamide] was 1390 nM; that for `CCC1(COc2cccc3cnc(N[C@H]4CC[C@H](O)CC4)nc23)COC1` [Example 246, trans-4-({8-[(3-ethyloxetan-3-yl)methoxy]quinazolin-2-yl}amino)cyclohexanol] was 257 nM; that for `FC1(F)CCC(Nc2ncc3cccc(OC4CCOCC4)c3n2)CC1` [Example 176, N-(4,4-difluorocyclohexyl)-8-(tetrahydro-2H-pyran-4-yloxy)quinazolin-2-amine] was 422 nM.
Still for that read-out and setting: then `O=C(NCCc1ccccc1)c1ccc2cnc(N[C@H]3CC[C@H](O)CC3)nc2c1` [Example 82, 2-[(trans-4-hydroxycyclohexyl)amino]-N-(2-phenylethyl)quinazoline-7-carboxamide], with 235 nM; and `O=C(CN1N=C(c2ccccc2)CCC1=O)Nc1cc2cc(-c3cn[nH]c3)ccc2cn1` [Example 34, 2-(6-oxo-3-phenyl-5,6-dihydropyridazin-1(4H)-yl)-N-[6-(1H-pyrazol-4-yl)isoquinolin-3-yl]acetamide], with 17 nM; and `O=C(NCCCO)c1cccc2cnc(N[C@H]3CC[C@H](O)CC3)nc12` [Example 451, 2-[(trans-4-hydroxycyclohexyl)amino]-N-(3-hydroxypropyl)quinazoline-8-carboxamide], with 166 nM.
On to `O[C@H]1CC[C@H](Nc2ncc3ccc(OCC4CCOC4)cc3n2)CC1` (stereo partly drawn) [Example 155, trans-4-{[7-(tetrahydrofuran-3-ylmethoxy)quinazolin-2-yl]amino}cyclohexanol], for which the affinity, expressed as Ki, was 156 nM.
Still for that read-out and setting: the value for `CC(C)(CO)NC(=O)c1cccc2cnc(N[C@H]3CC[C@H](O)CC3)nc12` [Example 104, 2-[(trans-4-hydroxycyclohexyl)amino]-N-(2-hydroxy-1,1-dimethylethyl)quinazoline-8-carboxamide] was 66 nM.

The values are drawn from patent publication US7998978B2 (Pfizer Inc., priority 2006, dated 2011).
